This is an account of results in patent US10487345B2, “Methods for making and using polynucleotide sequences in the synthesis of alkaloid compounds” (priority 2014, dated 2019).

SMILES strings stand for the structures.

For one assay, the target named is GFLOMT1 (Glaucium flavum, UniProt A0A0H4IRD0). The assay can be described thus: Standard OMT assay, substrate specificity of recombinant GFLOMT1. The assay is classed as biochemical. The note with it: for conversion of substrate by GFLOMT1: standard OMT assay, in the presence of SAM; for Substrate specificity, enzyme GFLOMT1: substrate conversion in the standard OMT assay in the presence of SAM (percent). From the text:
(§1) Full-length cDNAs for the seven GFLOMT candidates (see: Example 6) were cloned into the pRSETA expression vector with an N-terminal His_tag translational fusion and expressed in E. coli. Recombinant GFLOMTs were purified from total protein extracts using a cobalt-affinity resin.

Another assay deals with GFLOMT6 (Glaucium flavum, UniProt A0A0H4IRD2). The assay can be described thus: Standard OMT assay, substrate specificity of recombinant GFLOMT6. The assay is classed as biochemical. The settings on record: for conversion of substrate by GFLOMT6 / acceptance as substrate by GFLOMT6 (in words): standard OMT assay; for Substrate specificity, enzyme GFLOMT6: substrate conversion in the standard OMT assay (percent).
From the text: as §1

For assay [1], the target named is T1, GFLOMT2 (Glaucium flavum, UniProt A0A0H4ILZ3).
T1 sequence (A0A0H4ILZ3 1-348): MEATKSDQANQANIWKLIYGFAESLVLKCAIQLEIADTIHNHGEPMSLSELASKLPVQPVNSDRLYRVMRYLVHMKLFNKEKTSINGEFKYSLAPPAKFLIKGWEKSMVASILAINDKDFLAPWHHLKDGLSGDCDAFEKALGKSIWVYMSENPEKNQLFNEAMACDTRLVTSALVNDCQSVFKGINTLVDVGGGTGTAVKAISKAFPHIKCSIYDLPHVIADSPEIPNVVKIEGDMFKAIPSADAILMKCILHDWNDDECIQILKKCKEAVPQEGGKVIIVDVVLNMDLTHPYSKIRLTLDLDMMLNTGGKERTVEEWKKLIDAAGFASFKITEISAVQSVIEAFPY
Kind of assay: Standard OMT assay, substrate specificity of recombinant GFLOMT2. Format: biochemical. The note with it: for conversion of substrate by GFLOMT2: standard OMT assay; for Substrate specificity, enzyme GFLOMT2: substrate conversion in the standard OMT assay (percent).
From the text: as §1

Assay [2] concerns the target T1, GFLOMT2. The settings on record: read-out: Km of GFLOMT2 for substrate; preferred substrate yielding single reaction product.
In a further assay the test system is GFLOMT7. Kind of assay: Standard OMT assay, substrate specificity of recombinant GFLOMT7. Format: biochemical, Glaucium flavum. The note with it: for conversion of substrate by GFLOMT7: standard OMT assay; for Substrate specificity, enzyme GFLOMT7: substrate conversion in the standard OMT assay (percent).
From the text: as §1

With `COc1cc2c(cc1O)C(Cc1ccc(O)c(O)c1)N(C)CC2` (racemic) [(R,S)-6-O-Methyllaudanosoline, 6-O-Methyllaudanosoline], on GFLOMT1, the “conversion of substrate by GFLOMT1” value worked out at 68% and the “Substrate specificity, enzyme GFLOMT1” value came to 68. Further, at GFLOMT6, the “conversion of substrate by GFLOMT6” value is on record as 23% and the “Substrate specificity, enzyme GFLOMT6” value was 23. Besides, at GFLOMT2 [1], the “conversion of substrate by GFLOMT2” value is 14% and the “Substrate specificity, enzyme GFLOMT2” value is listed as 14.

As for `COc1cc2c(cc1O)C(Cc1ccc(O)c(O)c1)NCC2` (racemic) [(R,S)-6-O-Methylnorlaudanosoline, 6-O-Methylnorlaudanosoline], at GFLOMT1, the “conversion of substrate by GFLOMT1” value came to 87% and the “Substrate specificity, enzyme GFLOMT1” value is given as 87. On GFLOMT6, the “acceptance as substrate by GFLOMT6 (in words)” value was “did not accept”. Moreover, on GFLOMT2 [1], the “conversion of substrate by GFLOMT2” value was 1% and the “Substrate specificity, enzyme GFLOMT2” value is listed as 1.

Regarding `Oc1ccc(CC2NCCc3cc(O)c(O)cc32)cc1O` (racemic) [(R,S)-Norlaudanosoline, Norlaudanosoline], at GFLOMT1, the “conversion of substrate by GFLOMT1” value amounted to 96% and the “Substrate specificity, enzyme GFLOMT1” value worked out at 96. Besides, the “acceptance as substrate by GFLOMT6 (in words)” value on GFLOMT6 is reported as “did not accept”. Also, on GFLOMT2 [1], the “conversion of substrate by GFLOMT2” value was 100% and the “Substrate specificity, enzyme GFLOMT2” value is reported as 100. Further, at GFLOMT2 [2], the Km is 15 µM.

On to `COc1ccc(C[C@@H]2NCCc3cc(OC)c(O)cc32)cc1O` (racemic) [(R,S)-Norreticuline, Norreticuline], for which, on GFLOMT6, the “conversion of substrate by GFLOMT6” value was 36% and the “Substrate specificity, enzyme GFLOMT6” value is 36.

Regarding `COc1cc2c(cc1O)C1Cc3ccc(OC)c(O)c3CN1CC2` (racemic) [(R,S)-Scoulerine, Scoulerine], in the assay on GFLOMT7, the “conversion of substrate by GFLOMT7” value worked out at 12% and the “Substrate specificity, enzyme GFLOMT7” value is listed as 12. At GFLOMT1, the “conversion of substrate by GFLOMT1” value was found to be 32% and the “Substrate specificity, enzyme GFLOMT1” value is given as 32. For the same compound, at GFLOMT6, the “conversion of substrate by GFLOMT6” value came out at 100% and the “Substrate specificity, enzyme GFLOMT6” value is 100. Besides, at GFLOMT2 [1], the “conversion of substrate by GFLOMT2” value was found to be 75% and the “Substrate specificity, enzyme GFLOMT2” value was 75.

In the case of `COc1cc2c(cc1O)[C@@H]1Cc3ccc(OC)c(OC)c3CN1CC2` (racemic) [(R,S)-Tetrahydrocolubamine, Tetrahydrocolumbamine], in the assay on GFLOMT7, the “conversion of substrate by GFLOMT7” value came out at 8% and the “Substrate specificity, enzyme GFLOMT7” value is given as 8. On GFLOMT1, the “conversion of substrate by GFLOMT1” value is recorded as 19% and the “Substrate specificity, enzyme GFLOMT1” value was found to be 19. Also, on GFLOMT6, the “conversion of substrate by GFLOMT6” value came out at 90% and the “Substrate specificity, enzyme GFLOMT6” value is 91. For the same compound, on GFLOMT2 [1], the “conversion of substrate by GFLOMT2” value worked out at 32% and the “Substrate specificity, enzyme GFLOMT2” value is 32.

With `COc1ccc(C[C@H]2c3cc(O)c(OC)cc3CCN2C)cc1O` [(S)-Reticuline, Reticuline], at GFLOMT1, the “conversion of substrate by GFLOMT1” value is recorded as 6% and the “Substrate specificity, enzyme GFLOMT1” value came out at 6. On GFLOMT6, the “conversion of substrate by GFLOMT6” value was 97% and the “Substrate specificity, enzyme GFLOMT6” value is 97. On GFLOMT2 [1], the “conversion of substrate by GFLOMT2” value came to 22% and the “Substrate specificity, enzyme GFLOMT2” value is reported as 22.
